What all share (assay): Dissociation constant by competitive fluorescence anisotropy with rhodamine-rev peptide probe
Assay type in all cases: binding
(In general: Fluorescence polarisation rises when a labelled molecule tumbles more slowly, as on binding a larger partner.)

One test has as its target pre-let7a-1. Particulars: for Discrimination ratio pre-let7a-1 (in parenthesis): Kd against other RNA (HBV, IRES, other miRNAs)/Kd against target miRNA. The procedure:
(§1) The binding affinity between the peptide synthesized in <Example 1> and pre-miRNA from <Example 2> were measured by fluorescence anisotropy using competitive binding method. A rev peptide with rhodamine attached at the N-terminal was used as a fluorescent probe and LS-55 luminescence spectrometer from Perkin-Elmer was use for analysis. A constant temperature of 20° C. was maintained by a water bath. The fluorescent intensity was measured by of 200 nM of rhodamine-rev peptide was measured with an excitation wavelength at 550 nm (band path 10 nm) and detection at 580 nm (band path 10 nm). The integration time […]. Each experimental value is the mean value of 5 measurements. A 20 mM of HEPES{4-(2-hydroxyethyl)-1-piperazineethanesulfonic acid} buffer (pH 7.5) containing 140 mM NaCl, 5 mM KCl and 1 mM MgCl2 was used for measuring the dissociation constant. The dissociation constant was determined according to the Mathematical Formula 1 and using Kaledia graph.
(§2) A and Ao are the fluorescence anistropy in the presence or absence of RNA, whereas ΔA is the difference between these two values. [RNA]0 and [Rh-rev]0 are initial concentrations of RNA and rev peptide binding with rhodamine.
(§3) According the method described in <Example 3>, the dissociation constant between second generation peptide and 2 pre-miRNAs synthesized from <Example 2> was determined using fluorescent polarization detection method and fluorescent probe molecule.

In the next test the target is pre-miR16-1. Particulars: for Discrimination ratio pre-miR16-1 (in parenthesis): Kd against other RNA/Kd against target miRNA. On the procedure:
as §1, §2, §3

In a further test the target is HBV (hairpin RNA). Particulars: Table 6. On the procedure:
as §1, §2, §3

The next test has as its target IRES (hairpin RNA). Particulars: Table 6. On the procedure: as §1, §2, §3
Another test concerns the target pre-miR24-1. The following applies: for Kd / Discrimination ratio pre-miR24-1 (in parenthesis): Table 6; for Discrimination ratio pre-miR24-1 (in parenthesis): Kd against other RNA/Kd against target miRNA. The procedure: as §1, §2, §3
The mark [1] stands for this setting: Table 3, first generation peptides, 20° C., HEPES pH 7.5, read-out: Kd value with pre-let7a-1.
Setting [2] is: Table 5, second generation peptides, read-out: Kd value against pre-let7a-1.
[3] abbreviates: Table 3, first generation peptides, 20° C., HEPES pH 7.5, read-out: Kd value with pre-miR16-1.
Setting [4] is: Table 5, second generation peptides, read-out: Kd value against pre-miR16-1.
[5] abbreviates: Table 6, read-out: Kd pre-let7a-1.
Setting [6] is: Table 6, read-out: Kd pre-miR16-1.

Where two headings read alike, the source gives them in different places.

Consider “LKKLLKLLKKLLKLAG [Peptide 1, Ac-LKKLLKLLKKLLKLAG]”, for which the Kd (in general, the constant that tells how readily two partners part at equilibrium) worked out at 17 nM on pre-let7a-1 (setting [1]), 17 nM at pre-let7a-1 (setting [2]), 12 nM on pre-miR16-1 (setting [3]) and 12 nM at pre-miR16-1 (setting [4]).

Consider “LKKLLKLLKKLLKWAG [Peptide 1h, Ac-LKKLLKLLKKLLKWAG]”, for which the “binding with pre-let7a-1” value with pre-let7a-1 was “significant increase in binding affinity”. The Kd was 0.11 nM on pre-let7a-1 (setting [1]) and 0.4 nM on pre-miR16-1 (setting [3]). In the test on pre-let7a-1 (pre-miRNA not named, values fit pre-let7a-1), the “increase in binding affinity compared to the peptide with no tryptophan substitution (peptide 1)” value is reported as 150 times. Also, the “binding with pre-miR16-1” value in the test with pre-miR16-1 is “significant increase in binding affinity”.

With “LKKLLKLLKKLWKLAG [Peptide 1g, Ac-LKKLLKLLKKLWKLAG]”, the Kd at pre-let7a-1 (setting [1]) amounted to 0.25 nM; at pre-miR16-1 (setting [3]), 0.56 nM.

Turning to “LKKLLKLLKKLWKWAG [Peptide 2j, Ac-LKKLLKLLKKLWKWAG, 21]”, the Kd at HBV (hairpin RNA) worked out at 0.35 nM; at pre-let7a-1 (setting [2]) it was 0.37 nM; on pre-let7a-1 (setting [5]), 0.37 nM; on IRES (hairpin RNA), 0.85 nM; on pre-miR24-1 it was 0.27 nM; at pre-miR16-1 (setting [4]), 0.44 nM. Besides, at pre-miR16-1 (setting [6]), the Kd came out at 0.44 nM. For the same sequence, in the test on pre-let7a-1 (Table 6), the “Discrimination ratio pre-let7a-1 (in parenthesis)” value came out at 1.0. In the test with pre-miR24-1, the “Discrimination ratio pre-miR24-1 (in parenthesis)” value is 1.9. For the same sequence, the “Discrimination ratio pre-miR16-1 (in parenthesis)” value in the test with pre-miR16-1 (Table 6) came to 1.4.

With “LKKLLKLLKKWLKLAG [Peptide 1f, Ac-LKKLLKLLKKWLKLAG]”, the Kd on pre-let7a-1 (setting [1]) is 0.32 nM; on pre-miR16-1 (setting [3]), 0.48 nM.

As to “LKKLLKLLKKWLKWAG [Peptide 2i, Ac-LKKLLKLLKKWLKWAG, 20]”, the equilibrium dissociation constant (Kd) on HBV (hairpin RNA) worked out at 0.82 nM; on pre-let7a-1 (setting [2]), 0.31 nM; at pre-let7a-1 (setting [5]), 0.31 nM; on IRES (hairpin RNA), 1.2 nM; at pre-miR24-1, 0.53 nM; on pre-miR16-1 (setting [4]), 0.47 nM. The Kd on pre-miR16-1 (setting [6]) is 0.47 nM. Moreover, the “Discrimination ratio pre-let7a-1 (in parenthesis)” value with pre-let7a-1 (Table 6) is given as 4.4. The “Discrimination ratio pre-miR24-1 (in parenthesis)” value in the test on pre-miR24-1 was determined as 1.2. In addition, in the test on pre-miR16-1 (Table 6), the “Discrimination ratio pre-miR16-1 (in parenthesis)” value is recorded as 1.6.

As to “LKKLLKLLKKWWKLAG [Peptide 2h, Ac-LKKLLKLLKKWWKLAG, 19]”, the Kd came to 5.7 nM on HBV (hairpin RNA); 1.5 nM at pre-let7a-1 (setting [2]); 1.5 nM at pre-let7a-1 (setting [5]); 1.7 nM at IRES (hairpin RNA); 1.5 nM on pre-miR24-1; 2.6 nM on pre-miR16-1 (setting [4]). Besides, at pre-miR16-1 (setting [6]), the Kd came out at 2.6 nM. The “Discrimination ratio pre-let7a-1 (in parenthesis)” value with pre-let7a-1 (Table 6) is 1.8. In addition, in the test on pre-miR24-1, the “Discrimination ratio pre-miR24-1 (in parenthesis)” value is on record as 1.9. In the test with pre-miR16-1 (Table 6), the “Discrimination ratio pre-miR16-1 (in parenthesis)” value was found to be 1.0.

In the case of “LKKLLKWLKKLLKLAG [Peptide 1d, Ac-LKKLLKWLKKLLKLAG]”, the equilibrium dissociation constant (Kd) is 0.64 nM at pre-let7a-1 (setting [1]) and 1.8 nM on pre-miR16-1 (setting [3]).

As for “LKKLLKWLKKLLKWAG [Peptide 2g, Ac-LKKLLKWLKKLLKWAG, 18]”, the Kd at HBV (hairpin RNA) was 1 nM; at pre-let7a-1 (setting [2]) it was 0.96 nM; on pre-let7a-1 (setting [5]), 0.96 nM; at IRES (hairpin RNA), 1.3 nM; on pre-miR24-1, 0.47 nM; on pre-miR16-1 (setting [4]) it was 1.1 nM. On pre-miR16-1 (setting [6]), the dissociation constant (Kd) amounted to 1.1 nM. For the same sequence, the “Discrimination ratio pre-let7a-1 (in parenthesis)” value in the test with pre-let7a-1 (Table 6) was 0.85. In the test with pre-miR24-1, the “discrimination ratio for pre-miR24-1” value was 2.3. Besides, the “Discrimination ratio pre-miR24-1 (in parenthesis)” value with pre-miR24-1 is given as 2.3. For the same sequence, the “Discrimination ratio pre-miR16-1 (in parenthesis)” value with pre-miR16-1 (Table 6) came out at 0.99.

With “LKKLWKLLKKLLKLAG [Peptide 1c, Ac-LKKLWKLLKKLLKLAG]”, the results for the dissociation constant Kd at pre-let7a-1 (setting [1]) and on pre-miR16-1 (setting [3]) were 0.41 nM and 0.56 nM, respectively.

As for “LKKLWKLLKKLLKWAG [Peptide 2f, Ac-LKKLWKLLKKLLKWAG, 17]”, the Kd at HBV (hairpin RNA) stood at 0.38 nM; on pre-let7a-1 (setting [2]), 0.9 nM; on pre-let7a-1 (setting [5]), 0.96 nM; at IRES (hairpin RNA), 3.8 nM; on pre-miR24-1 it was 2.2 nM; at pre-miR16-1 (setting [4]), 2.1 nM. Moreover, the equilibrium dissociation constant (Kd) on pre-miR16-1 (setting [6]) came to 2.1 nM. For the same sequence, the “Discrimination ratio pre-let7a-1 (in parenthesis)” value in the test on pre-let7a-1 (Table 6) is recorded as 9.3. For the same sequence, the “Discrimination ratio pre-miR24-1 (in parenthesis)” value in the test on pre-miR24-1 is 0.66. Besides, the “Discrimination ratio pre-miR16-1 (in parenthesis)” value in the test with pre-miR16-1 (Table 6) turned out to be 1.2.

“LKKWLKLLKKLLKLAG [Peptide 1b, Ac-LKKWLKLLKKLLKLAG]”: the results for the Kd at pre-let7a-1 (setting [1]) and at pre-miR16-1 (setting [3]) were 0.68 nM and 1.2 nM, respectively.

Take “WKKLLKLLKKLLKLAG [Peptide 1a, Ac-WKKLLKLLKKLLKLAG]”: in the test with pre-let7a-1, the “binding with pre-let7a-1” value is listed as “significant increase in binding affinity”. Further, the Kd at pre-let7a-1 (setting [1]) came to 0.17 nM; at pre-miR16-1 (setting [3]), 0.42 nM. In addition, in the test with pre-miR16-1, the “binding with pre-miR16-1” value is “significant increase in binding affinity”.

“WKKLLKLLKKLLKWAG [Peptide 2e, Ac-WKKLLKLLKKLLKWAG, 16]”: the equilibrium dissociation constant (Kd) stood at 0.34 nM on HBV (hairpin RNA); 0.22 nM on pre-let7a-1 (setting [2]); 0.9 nM at pre-let7a-1 (setting [5]); 0.76 nM on IRES (hairpin RNA); 0.84 nM at pre-miR24-1; 0.28 nM on pre-miR16-1 (setting [4]). Also, the dissociation constant (Kd) at pre-miR16-1 (setting [6]) was 0.28 nM. Moreover, the “Discrimination ratio pre-let7a-1 (in parenthesis)” value with pre-let7a-1 (Table 6) is listed as 1.7. Also, the “Discrimination ratio pre-miR24-1 (in parenthesis)” value in the test on pre-miR24-1 is 0.50. Further, the “Discrimination ratio pre-miR16-1 (in parenthesis)” value with pre-miR16-1 (Table 6) stood at 2.3. Further, the “discrimination ratio for pre-miR16-1” value in the test on pre-miR16-1 (against other RNAs) is recorded as 2.3.

For the sequence “WKKLLKLLKKLWKLAG [Peptide 2d, Ac-WKKLLKLLKKLWKLAG, 15]”, the dissociation constant Kd at HBV (hairpin RNA) came to 0.79 nM; on pre-let7a-1 (setting [2]), 0.25 nM; on pre-let7a-1 (setting [5]), 0.22 nM; on IRES (hairpin RNA) it was 0.77 nM; on pre-miR24-1, 0.67 nM; at pre-miR16-1 (setting [4]) it was 0.64 nM. Moreover, the Kd on pre-miR16-1 (setting [6]) is 0.64 nM. Further, the “Discrimination ratio pre-let7a-1 (in parenthesis)” value with pre-let7a-1 (Table 6) is 1.2. Moreover, the “Discrimination ratio pre-miR24-1 (in parenthesis)” value in the test with pre-miR24-1 amounted to 1.0. Also, the “Discrimination ratio pre-miR16-1 (in parenthesis)” value in the test with pre-miR16-1 (Table 6) was found to be 1.2.

For “WKKLWKLLKKLLKLAG [Peptide 2a, Ac-WKKLWKLLKKLLKLAG, 12]”, the dissociation constant Kd on HBV (hairpin RNA) came to 0.77 nM; at pre-let7a-1 (setting [2]) it was 0.23 nM; on pre-let7a-1 (setting [5]) it was 0.23 nM; at IRES (hairpin RNA), 0.9 nM; at pre-miR24-1, 0.82 nM; on pre-miR16-1 (setting [4]), 0.32 nM. Also, on pre-miR16-1 (setting [6]), the dissociation constant (Kd) was 0.32 nM. In addition, in the test on pre-let7a-1 (Table 6), the “Discrimination ratio pre-let7a-1 (in parenthesis)” value was determined as 2.8. Also, the “Discrimination ratio pre-miR24-1 (in parenthesis)” value with pre-miR24-1 turned out to be 0.66. Moreover, the “Discrimination ratio pre-miR16-1 (in parenthesis)” value in the test with pre-miR16-1 (Table 6) is listed as 2.6.

The record behind these values is patent US20110230367A1, “Amphiphilic Peptides Promoting Production of Target miRNA and Method of Regulating Production of Target miRNA” (SNU R&DB FOUNDATION, priority 2009, published 2011).
